Target: T1, ribonuclease A (RNase A) (Bos taurus, UniProt P61823)
T1 construct: gene RNASE1; native enzyme from bovine pancreas, commercial; mature secreted protein (signal peptide removed), no tag
T1 sequence (P61823 27-150): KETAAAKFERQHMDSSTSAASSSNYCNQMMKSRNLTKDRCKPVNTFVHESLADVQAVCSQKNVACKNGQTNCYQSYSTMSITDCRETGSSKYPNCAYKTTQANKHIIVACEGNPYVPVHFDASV
Test: isothermal titration calorimetry
Type: binding
Details: 25 mM Bis-Tris, 25 mM KCl, pH 6.0, 25 °C; K per RNase A concentration (five concentrations, up to 0.6 mM); ligand from disodium salt; y-intercept of −RTlnK versus complex concentration (extrapolated t)

ΔG°: -6.46 ± 0.03 kcal/mol
SMILES: O=c1ccn([C@@H]2O[C@H](CO)[C@@H](OP(=O)(O)O)[C@H]2O)c(=O)[nH]1 [3′‐UMP]

Source: paper PMC11532980, “Solvation free energy in governing equations for DNA hybridization, protein–ligand binding, and protein folding” (FEBS Open Bio, 2024)
